Measurements from PMC5698418 (Nature Communications, 2017).
Where two headings read alike, the source gives them in different places.

How the values were obtained:
[1] = tested on: BDNF-induced nuclear Arc expression in primary cortical neurons; test: Chemogenomic screen: high-content image-based assay of BDNF-induced nuclear Arc expression (96-well); format: cell-based, mouse
In short: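 DIV13 mouse primary cortical neurons (30,000 cells/well) are treated with compound at 16.7 µM and BDNF, in three biological replicates. Arc and acetyl-H3K9 are immunostained and imaged at ×40, and nuclear Arc signal is quantified automatically using acetyl-H3K9 as the nuclear mask.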

acetyl-H3K9 = test: Acetyl-H3K9 immunofluorescence in neuronal nuclei (multiplexed in screen); format: cell-based, mouse; details: screen, 16.7 µM
Protocol: To increase the throughput of our pharmacological screening for modulators of Arc, the above mentioned assay was adapted to cultures of mouse primary cortical neurons in 96-well plates.
Screening of compounds in the chemogenomic library was carried out using DIV13 primary forebrain cortical neurons cultured on poly-L-lysine/laminin-coated 96-well plates (Ibidi USA, Madison, WI). Cells were seeded at a density of 30,000 cells per well and treated with the compound library and BDNF according to the experimental design presented in Fig. 3a. After experimental treatment, cells were processed for Arc and acetyl-H3K9 immunocytochemistry according to the protocol described above. Both antigens (Arc and acetyl-H3K9) were imaged using an IN Cell Analyzer 6000 imaging system and a ×40 objective. […] High-throughput quantification of nuclear Arc immunofluorescence signal was performed in a similar fashion than the low-throughput procedure described above but with the exception that acetyl-H3K9 was used as a nuclear mask to guide the automated quantification of nuclear Arc immunofluorescence signal.

HDAC1 = target: T1, HDAC1 (Homo sapiens, UniProt Q13547); test: Biochemical HDAC assay (BPS Bioscience), HDAC1; details: 25 µM
T1 construct: purchased BPS Bioscience (San Diego, CA), contract assay service
T1 sequence (Q13547 whole entry): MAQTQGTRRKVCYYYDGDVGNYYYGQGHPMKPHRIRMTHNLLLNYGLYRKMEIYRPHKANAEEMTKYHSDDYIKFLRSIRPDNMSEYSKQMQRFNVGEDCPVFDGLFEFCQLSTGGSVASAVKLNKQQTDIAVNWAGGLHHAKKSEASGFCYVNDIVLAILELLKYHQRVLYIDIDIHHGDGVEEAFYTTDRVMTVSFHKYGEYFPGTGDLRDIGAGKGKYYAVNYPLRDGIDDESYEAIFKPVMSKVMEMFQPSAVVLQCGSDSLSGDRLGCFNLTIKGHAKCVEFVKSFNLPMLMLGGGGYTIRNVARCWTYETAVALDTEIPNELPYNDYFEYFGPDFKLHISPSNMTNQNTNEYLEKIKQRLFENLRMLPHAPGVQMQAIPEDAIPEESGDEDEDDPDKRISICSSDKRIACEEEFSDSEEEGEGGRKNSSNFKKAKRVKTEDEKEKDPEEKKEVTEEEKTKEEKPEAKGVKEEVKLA

HDAC2 = target: T2, HDAC2 (Homo sapiens, UniProt Q92769); test: Biochemical HDAC assay (BPS Bioscience), HDAC2; details: 25 µM
T2 construct: purchased BPS Bioscience (San Diego, CA), contract assay service
T2 sequence (Q92769 whole entry): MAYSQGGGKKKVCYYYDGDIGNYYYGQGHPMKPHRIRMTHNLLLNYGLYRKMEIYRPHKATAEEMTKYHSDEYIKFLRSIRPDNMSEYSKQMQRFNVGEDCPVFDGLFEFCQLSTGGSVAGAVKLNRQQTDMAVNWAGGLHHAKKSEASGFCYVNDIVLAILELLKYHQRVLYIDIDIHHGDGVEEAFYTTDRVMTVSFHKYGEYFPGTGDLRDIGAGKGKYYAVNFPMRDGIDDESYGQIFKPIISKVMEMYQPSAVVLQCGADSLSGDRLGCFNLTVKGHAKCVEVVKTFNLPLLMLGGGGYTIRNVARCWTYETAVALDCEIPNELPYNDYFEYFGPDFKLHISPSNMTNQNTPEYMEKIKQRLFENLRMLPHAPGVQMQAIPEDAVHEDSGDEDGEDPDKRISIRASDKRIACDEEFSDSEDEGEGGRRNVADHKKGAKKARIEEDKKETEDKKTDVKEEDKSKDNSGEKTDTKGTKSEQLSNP

HDAC3 = target: T3, HDAC3 (Homo sapiens, UniProt O15379); test: Biochemical HDAC assay (BPS Bioscience), HDAC3; details: 25 µM
T3 construct: purchased BPS Bioscience (San Diego, CA), contract assay service
T3 sequence (O15379 whole entry): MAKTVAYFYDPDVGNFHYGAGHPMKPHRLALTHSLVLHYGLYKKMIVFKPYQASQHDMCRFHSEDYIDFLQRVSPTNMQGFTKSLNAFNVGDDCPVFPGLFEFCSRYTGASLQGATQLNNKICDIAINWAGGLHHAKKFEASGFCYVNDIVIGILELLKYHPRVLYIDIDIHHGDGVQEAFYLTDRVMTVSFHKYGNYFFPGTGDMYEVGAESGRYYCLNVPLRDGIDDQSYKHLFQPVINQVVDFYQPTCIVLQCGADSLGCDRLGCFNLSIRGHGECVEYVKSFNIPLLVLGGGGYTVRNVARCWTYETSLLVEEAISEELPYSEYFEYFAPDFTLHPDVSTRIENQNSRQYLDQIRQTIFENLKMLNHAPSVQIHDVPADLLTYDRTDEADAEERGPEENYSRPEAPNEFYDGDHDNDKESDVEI
T3 sequence (Q9Y618 395-489 partner limits assumed): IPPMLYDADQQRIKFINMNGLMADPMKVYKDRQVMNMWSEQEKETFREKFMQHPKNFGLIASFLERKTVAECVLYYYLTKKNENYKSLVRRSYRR

[2] = tested on: Arc puncta in dendrites of primary cortical neurons; test: Arc puncta along Map2-labeled dendrites (immunocytochemistry); format: cell-based, mouse; details: 16.7 µM with BDNF, vs untreated and BDNF alone; for BDNF: BDNF alone vs untreated
Description: Chemical structure of each compound is presented on top. b Graphs show mean (n = 5) Arc/β-actin ratio (±SEM) for cells treated as in a. […] Tukey’s HSD post hoc test, *p < 0.05; **p < 0.01, ***p < 0.005; ****p < 0.0001. […] Representative captures of DIV14 mouse primary cortical neurons from each experimental condition co-immunostained for Arc (red fluorophore) and Map2 (green fluorophore). White arrowheads show examples of discrete Arc puncta. […] Tukey’s HSD post hoc test, *p < 0.05; ***p < 0.005; ****p < 0.0001
Indirect immunofluorescence detection of antigens was carried out using cortical neurons cultured on poly-L-lysine/laminin-coated coverslips in 24-well plates at a density of 0.1 × 10^7 per well. After experimental treatment, cells were washed twice with PBS and fixed for 30 min at room temperature with 4% paraformaldehyde in PBS. After fixation, cells were washed twice with PBS, permeabilized with PBST (PBS + 0.25% Triton X-100) for 20 min, blocked in blocking solution (PBS + 5% normal goat serum) for another 30 min, and finally incubated overnight at 4 °C with the first primary antibody in blocking solution. The next day, coverslips were extensively washed with PBS and incubated for 2 h at room temperature in the appropriate fluorophore-conjugated secondary antibody solution (Alexa 488- or Alexa 594-conjugated secondary antibody (Molecular Probes, Invitrogen) in blocking solution). After washing with PBS, the coverslips were incubated again overnight in primary antibody solution for the second antigen, and the procedure for conjugation of the fluorophore-conjugated secondary antibody was repeated as above. Finally, cell nuclei were counterstained with 4′,6-diamidino-2-phenylindole (DAPI), and coverslips were mounted on glass slides with ProLong Antifade reagent (Invitrogen).
(§1) Quantification of surface GluA1 puncta was performed according to the following strategy. First, overlapping digital images of GluA1 and Map2 immunostainings were collected using a Zeiss AxioObserver Z1 inverted microscope and ×63 oil immersion objective. Second, thresholding and segmentation based on the Map2 images was used to remove GluA1 signals outside of dendritic processes. Importantly, the same background/foreground cutoff threshold was used for images of all experimental conditions. Third, the length of dendrites for each image set was measured and recorded. Finally, distinct GluA1 foreground objects along dendrites >5 pixels were counted using the particle analysis tool in ImageJ and presented as the average number of GluA1 puncta per µm of dendrite length for each experimental condition.

surface GluA1 = test: Surface AMPAR (GluA1) imaging along dendrites; format: cell-based, mouse; details: 16.7 µM, 6 h with BDNF, vs untreated and BDNF alone; for BDNF: BDNF alone vs baseline
Protocol: Our procedure to label surface AMPARs containing the GluA1 subunit was adapted from two reports[14],[61]. Precisely, DIV14 primary cortical neurons cultured on coverslips were rinsed once with room temperature PBS^MC (PBS containing 0.5 mM CaCl2, 1 mM MgCl2, and 4% sucrose). Live cells were then incubated for 30 min at room temperature with GluA1 primary antibody solution (PBS^MC with antibody against the extracellular N-terminus of GluA1 (EMD Millipore Corp, clone RH95, 5.0 µg ml^−1)). Next, cells were rinsed twice with ice-cold PBS^MC followed by fixation with 4% paraformaldehyde + 4% sucrose solution for 15 min at room temperature. After fixation, neurons were washed with regular PBS and then incubated overnight with Map2 primary antibody solution (PBS with 0.125% Triton X-100, 5% normal goat serum, and anti-Map2 antibody) to label dendrites. Next day, coverslips were washed with PBS, incubated with appropriate secondary antibodies for 1 h at room temperature, and finally mounted on glass slides with ProLong Antifade reagent (Invitrogen).
as §1

Arc protein [3] = test: Western blot of total Arc protein in primary cortical neurons; format: cell-based, mouse; details: BDNF 6 h supplemented with compound
Protocol: Forebrains of E16.5 C57BL/6 mouse embryos were dissected and then dissociated in trypsin solution for 15 min followed by three washes with phosphate-buffered saline (PBS). Single-cell suspension was achieved by gentle pipet trituration. Neurons were seeded in poly-L-lysine/laminin-coated six-well plates at a density of 2 × 10^6 per well and maintained in neurobasal medium containing B27 supplement (2%, Invitrogen, Grand Island, NY), penicillin (50 units ml^−1, Invitrogen), streptomycin (50 µg ml^−1, Invitrogen), and glutamine (1 mM, Sigma). For experiments involving BDNF (EMD Millipore Corps, Billerica, MA), the stock solution (2 ng µl^−1 in water) was added directly to the culture medium at a final concentration of 100 ng ml^−1 for the indicated period of time.
For western blot analyses, cells were collected by scraping in ice-cold radioimmunoprecipitation assay (RIPA) buffer (50 mM Tris-HCl (pH 8.0), 300 mM NaCl, 0.5% Igepal-630, 0.5% deoxycholic acid, 0.1% SDS, 1 mM EDTA) supplemented with a cocktail of protease inhibitors (Complete Protease Inhibitor without EDTA, Roche Applied Science, Indianapolis, IN) and phosphatase inhibitors (phosphatase inhibitor cocktail A, Santa Cruz Biotechnology). One volume of 2× Laemmli buffer (100 mM Tris-HCl (pH 6.8), 4% SDS, 0.15% bromophenol blue, 20% glycerol, 200 mM β-mercaptoethanol) was added and the extracts were boiled for 5 min. Samples were adjusted to an equal concentration after protein concentrations were determined using the BCA assay (Pierce, Thermo Fisher Scientific). Lysates were separated using SDS–PAGE and transferred to a nitrocellulose membrane. After transfer, the membrane was blocked in TBST (Tris-buffered saline + 0.1% Tween 20) supplemented with 5% nonfat powdered milk and probed with the indicated primary antibody at 4 °C overnight. After washing with TBST, the membrane was incubated with the appropriate secondary antibody and visualized using enhanced chemiluminescence (ECL) reagents according to the manufacturer’s guidelines (Pierce, Thermo Fisher Scientific).
The following procedure was used to quantify western blots. First, equal quantity of protein lysate was analyzed by SDS–PAGE for each biological replicate. Second, the exposure time of the film to the ECL chemiluminescence was the same for each biological replicate. Third, all the exposed films were scanned on a Brother MFC-J485DW scanner in grayscale at a resolution of 300 dpi. Fourth, the look-up table (LUT) of the scanned tiff images was inverted and the intensity of each band was individually measured using the selection tool and the histogram function in Adobe Photoshop CC 2015 software. […]

Arc protein [4] = test: Arc protein half-life after cycloheximide block in primary cortical neurons; format: cell-based, mouse; details: BDNF 4 h, then CHX plus oxamflatin; vehicle baseline ~47 min
Protocol: Each compound was tested at a concentration of 16.7 µM and in combination with BDNF or alone. Arc mRNA level induced by just BDNF was included in each experiment as a reference. Bars represent mean fold-change (f.c.) normalized to Arc expression measured in untreated cultures and each red point represents fold-change for an individual biological replicate (n = 4). d Primary cortical neurons were treated with BDNF for 4 h to induce Arc expression at which point protein synthesis was blocked by direct addition to culture media of cycloheximide (CHX, 50 µg ml^−1) in presence of vehicle or oxamflatin (16.7 µM). […] It is left out because the vehicle is a control and not a substance.
Specifically, we stimulated the cells with BDNF for 4 h to promote accumulation of Arc protein and then added CHX to block all de novo protein translation. Importantly, cultures treated this way were divided in two groups—one to which oxamflatin was added at the same time as CHX and another that was treated with the vehicle only (baseline measure). […] This experiment provided clear evidence that the impact of oxamflatin on Arc protein abundance is, at least in part, the result of a decrease in the rate of Arc protein degradation; however, a mechanistic explanation of how this KDAC inhibitor is modulating the turnover of Arc protein remained elusive at this point.

Neuro2a cells [5] = details: for Fold-change to WT: protein half-life in Neuro2a
Description: Next, we aimed to determine whether the K24, K33, K55, and K70 residues participate in Arc protein turnover. […] We also included K70 in this experiment because of its position in the coiled-coil and nuclear retention domains of Arc (Fig. 5e) as well as its relative proximity to K55. For this test, we used site-directed mutagenesis to generate plasmids that would allow overexpression of an acetyl-mimic/unmodifiable mutant Arc-Myc-FLAG protein (lysine (K) to glutamine (Q) mutant) for each of these four sites. After transfecting sets of Neuro2a cells with these different constructs, we inhibited translation with CHX and monitored overexpressed protein levels for up to 6 h after.
Lysates were collected at the indicated time points and Arc-Myc-FLAG protein level analyzed in every sample by western blotting with an anti-FLAG antibody. Representative western blots are presented on top and quantification of data normalized to corresponding β-actin and presented as percentage of Arc-Myc-FLAG level (±SEM) at the initial time point after CHX application (t = 0). Curve represents exponential decay fit. b Estimate of protein half-life Arc for WT Arc-Myc-FLAG and each acetyl-mimic mutant is presented in table. c WT and acetyl-mutant Arc-Myc-FLAG polyubiquitination was determined in lysates from overexpressing Neuro2a cells. Lysates were immunoprecipitated with anti-FLAG and western blotted with anti-Ub or anti-Arc as indicated.
Neuro2A cells were cultured in DMEM (supplemented with 10% fetal bovine serum (Gemini-Bio-Products, West Sacramento, CA), penicillin (50 units ml^−1), and streptomycin (50 µg ml^−1)) and transfected overnight using Lipofectamine 2000 (Invitrogen) according to the manufacturer’s protocol. The Neuro2A cell line was generously shared by Dr. Grace Gill.
The pCMV6-Arc-Myc-DDK (FLAG) plasmid (MR206218) was purchased from OriGene Biotechnologies (Rockville, MD). The Arc-Myc-FLAG K24Q, K24R, K33Q, K55Q, K70Q, and K70R plasmids were generated with the help of the Q5 Site-Directed Mutagenesis Kit from New England BioLabs (Ipswich, MA) using WT pCMV6-Arc-Myc-FLAG as template. All constructs were verified by DNA sequencing.

Neuro2a cells [6] = test: Polyubiquitination of WT and mutant Arc-Myc-FLAG (IP/western) in Neuro2a cells; format: cell-based, mouse; details: MG132 10 µM for 20 min
Description: To assess polyubiquitination of Arc in DIV13 primary cortical neurons, Arc was immunopurified from total lysates using an agarose-conjugated anti-Arc monoclonal antibody (Santa Cruz Biotechnology, clone C-7). Overexpressed WT and mutant Arc-Myc-FLAG in Neuro2a cells were immunopurified from total lysates with anti-FLAG M2 antibody conjugated to magnetic beads (Sigma-Aldrich, M8823). Immunopurified materials were separated using SDS–PAGE and electrophoretically transferred to a nitrocellulose membrane. To enhance the immunodetection of ubiquitin conjugated to Arc, the nitrocellulose membrane was placed between two layers of Whatman filter paper, submerged in distilled water, and autoclaved for 30 min. After autoclaving, the membrane was blocked in blocking solution (TBST supplemented with 5% milk) for 30 min and incubated overnight with an antibody recognizing ubiquitin (Santa Cruz Biotechnology, clone P4D1, 1:200) in blocking solution. Subsequent steps were carried out according to the western blot procedure described above.

Molecule: CC(=O)Nc1ccc(C(=O)Nc2ccccc2N)cc1 [CI-994]
- occurrence of neuronal nuclei with above threshold nuclear Arc immunofluorescence signal, factor in relation to control (DMSO plus BDNF) ([1]; 16.7 µM, BDNF): ≥ 1.5
- Percentage of cell with nuclear Arc immunostaining above 2σ threshold ([1]; chemogenomic (SMART) screen, BDNF-induced nuclear Arc expression, primary cortical neurons, BDNF control 19.5): 29.1%
- impact on acetyl-H3K9 immunofluorescence (Z-score) (acetyl-H3K9): strong impact
- inhibitory activity toward HDAC1 (HDAC1): potent inhibition
- inhibitory activity toward HDAC2 (HDAC2): potent inhibition
- inhibitory activity toward HDAC3 (HDAC3): potent inhibition
- number of Arc puncta in dendritic projections [2]: significantly greater number of Arc puncta
- surface GluA1 puncta per dendrite µm (surface GluA1): significant decrease in surface GluA1 levels

Molecule: oxamflatin
- Percentage of cell with nuclear Arc immunostaining above 2σ threshold [1]: 50.0%
- rank among potentiators of BDNF-induced nuclear Arc expression in screen ([1]; 16.7 µM, three biological replicates): second
- Fold-change — Normalized to DMSO control (BDNF) ([1]; nuclear Arc-positive cells relative to DMSO + BDNF control, negative values = decrease): 2.6 fold
- impact on acetyl-H3K9 immunofluorescence (Z-score) (acetyl-H3K9): strong impact
- total Arc protein vs BDNF plus vehicle control (western blot, Arc/β-actin) (Arc protein [3]): significantly more Arc protein
- Arc protein half-life (regression analysis) (Arc protein [4]): ~ 112 min
- number of Arc puncta in dendritic projections [2]: significantly greater number of Arc puncta
- surface GluA1 puncta per dendrite µm (surface GluA1): significant decrease in surface GluA1 levels

B1: K24Q: acetyl-mimic/unmodifiable mutant Arc-Myc-FLAG, lysine 24 to glutamine (protein, UniProt Q9WV31 1-396, looked up, variant K24Q)
Activity-regulated …: MELDHMTTGGLHAYPAPRGGPAAQPNVILQIGKCRAEMLEHVRRTHRHLLTEVSKQVERELKGLHRSVGKLENNLDGYVPTGDSQRWKKSIKACLCRCQETIANLERWVKREMHVWREVFYRLERWADRLESMGGKYPVGSEPARHTVSVGVGGPEPYCQEADGYDYTVSPYAITPPPAAGELPEQESVEAQQYQSWGPGEDGQPSPGVDTQIFEDPREFLSHLEEYLRQVGGSEEYWLSQIQNHMNGPAKKWWEFKQGSVKNWVEFKKEFLQYSEGTLSREAIQRELELPQKQGEPLDQFLWRKRDLYQTLYVDAEEEEIIQYVVGTLQPKLKRFLRHPLPKTLEQLIQRGMEVQDGLEQAAEPSGTPLPTEDETEALTPALTSESVASDRTQPE
modifications: Myc-FLAG tag
notes: acetyl-mimic/unmodifiable mutant Arc-Myc-FLAG, lysine 24 to glutamine
- Estimated t½ (Neuro2a cells [5]): 6.66 h
- Fold-change to WT (Neuro2a cells [5]): 2.40
- polyubiquitination of Arc-Myc-FLAG mutant (Neuro2a cells [6]): noticeable decrease in polyubiquitination

B2: K70Q: acetyl-mimic/unmodifiable mutant Arc-Myc-FLAG, lysine 70 to glutamine (protein, UniProt Q9WV31 1-396, looked up, variant K70Q)
Activity-regulated …: MELDHMTTGGLHAYPAPRGGPAAKPNVILQIGKCRAEMLEHVRRTHRHLLTEVSKQVERELKGLHRSVGQLENNLDGYVPTGDSQRWKKSIKACLCRCQETIANLERWVKREMHVWREVFYRLERWADRLESMGGKYPVGSEPARHTVSVGVGGPEPYCQEADGYDYTVSPYAITPPPAAGELPEQESVEAQQYQSWGPGEDGQPSPGVDTQIFEDPREFLSHLEEYLRQVGGSEEYWLSQIQNHMNGPAKKWWEFKQGSVKNWVEFKKEFLQYSEGTLSREAIQRELELPQKQGEPLDQFLWRKRDLYQTLYVDAEEEEIIQYVVGTLQPKLKRFLRHPLPKTLEQLIQRGMEVQDGLEQAAEPSGTPLPTEDETEALTPALTSESVASDRTQPE
modifications: Myc-FLAG tag
notes: acetyl-mimic/unmodifiable mutant Arc-Myc-FLAG, lysine 70 to glutamine
- Estimated t½ (Neuro2a cells [5]): 6.15 h
- Fold-change to WT (Neuro2a cells [5]): 2.22
- polyubiquitination of Arc-Myc-FLAG mutant (Neuro2a cells [6]): noticeable decrease in polyubiquitination
